According to paper PMC6514664, “Six New Coumarin Glycosides from the Aerial Parts of Gendarussa vulgaris” (Molecules, 2019):

How the values were obtained:
Eca-109 cell line = experiment: MTT cytotoxicity assay, Eca-109 cell line; format: cell-based, Human; conditions: Eca-109 esophageal cancer cell line, etoposide positive control
Method: (§1) The cytotoxic activities of all isolated compounds were evaluated by MTT assay.
(§2) According to the previous procedure, all isolated compounds were evaluated for cytotoxic activities against Eca-109, MCF-7, and HepG2 cell lines, as well as a normal human umbilical vein endothelial cell line (HUVEC) (Table 3). Etoposide was used as the positive control.
(§3) The UV spectra were measured on a Shimadzu UV-1700 spectrometer (Shimadzu Corporation, Kyoto, Japan). The IR spectra were measured on a Nicolet 10 Microscope Spectrometer (Thermo Scientific, San Jose, CA, USA). The 1D and 2D NMR spectra were recorded on Bruker-AC (E)-500 spectrometer (Bruker AM 500, Fällanden, Switzerland) using TMS as an internal standard. The HR-ESI-MS was determined on a Bruker microTOF-Q instrument (Bruker BioSpin, Rheinstetten, Germany). Column chromatography was performed with silica gel (200–300 mesh; Qingdao Marine Chemical Inc., Qingdao, China), sephadex LH-20 (GE Healthcare), ODS (50 µm; YMC Co. LTD., Kyoto, Japan.), AB-8 macroporous resin (Qinshi Science and Technology Ltd., Zhengzhou, China). Thin layer chromatography (TLC) was carried out on silica gel GF254 precoated plates (Qingdao Marine Chemical Inc., Qingdao, China), and spots were visualized under UV light. Preparative HPLC separations were performed on a SEP system (Beijing Sepuruisi scientific Co., Ltd., China) equipped with a variable-wavelength UV detector, using a YMC-Pack ODS-A column (250 × 20 mm, 5 μm). Chemical reagents for isolation were of analytical grade and purchased from Tianjin Siyou Co., Ltd., China. Biological reagents were from Sigma Company. Human heptocellular (HepG2), esophageal (Eca-109), and breast (MCF-7) cancer cell lines were from Institute of Materia Medica, Chinese Academy of Medical Sciences and Peking Union Medical College, China.

MCF-7 cell line = experiment: MTT cytotoxicity assay, MCF-7 cell line; format: cell-based, Human; conditions: etoposide positive control
Method: as §1, §2, §3

HepG2 cell line = experiment: MTT cytotoxicity assay, HepG2 cell line; format: cell-based, Human; conditions: HepG2 hepatocellular cancer cell line, etoposide positive control
Method: as §1, §2, §3

[1] = MTT cytotoxicity assay, normal HUVEC cell line; format: cell-based; conditions: HUVEC (normal human umbilical vein endothelial cells)
Method: (§4) According to the previous procedure [22], all isolated compounds were evaluated for cytotoxic activities against Eca-109, MCF-7, and HepG2 cell lines, as well as a normal human umbilical vein endothelial cell line (HUVEC) (Table 3). Etoposide was used as the positive control.

[2] = tested on: normal human umbilical vein endothelial cell line (HUVEC); experiment: MTT cytotoxicity assay, normal HUVEC cell line; format: cell-based
Method: as §4

[3] = Homo sapiens, MCF7, MCF-7 breast cancer cell line

Compound | IC50 (Eca-109 cell line; Homo sapiens) [µM] | IC50 (MCF-7 cell line; [3]) [µM] | IC50 (HepG2 cell line; Homo sapiens) [µM] | IC50 [1] [µM] | IC50 (Eca-109 cell line) [µM] | IC50 (MCF-7 cell line; MCF-7 breast cancer cell line) [µM] | IC50 (HepG2 cell line) [µM] | IC50 [2] [µM]
COc1cc2ccc(=O)oc2cc1O[C@@H]1O[C@H](CO)[C@@H](O)[C@H](O[C@@H]2O[C@H](CO)[C@@H](O)[C@H](O)[C@H]2O)[C@H]1O [Compound 3, 7-[(3-O-β-D-glucopyranosyl-β-D-glucopyranosyl)oxy]-6-methoxycoumarin] | > 100 | > 100 | > 100 |  |  |  |  | 
COc1cc2ccc(=O)oc2c(O[C@@H]2O[C@H](CO)[C@@H](O)[C@H](O)[C@H]2O)c1O[C@@H]1O[C@H](CO)[C@@H](O)[C@H](O)[C@H]1O [Compound 6, 7,8-bis(β-D-glucopyranosyloxy)-6-methoxycoumarin] | > 100 | > 100 | > 100 |  |  |  |  | 
COc1cc2ccc(=O)oc2c(O)c1O [Compound 12, fraxetin] | 20.4 ± 1.94 | 28.6 ± 1.37 | 30.3 ± 1.18 | > 100 |  |  |  | 
COc1cc2ccc(=O)oc2cc1O [Compound 13, scopoletin] | 45.7 ± 3.55 | 61.6 ± 5.7 | 53.7 ± 4.09 | > 100 |  |  |  | 
COc1cc2ccc(=O)oc2c(O)c1OC [Compound 14, fraxidin] | 41.1 ± 3.78 | 59.6 ± 5.24 | > 100 | > 100 |  |  |  | 
COc1cc2ccc(=O)oc2cc1OC [Compound 16, scoparone] | > 100 | > 100 | > 100 |  |  |  |  | 
COc1cc([C@@H]2c3cc4c(cc3[C@@H](O[C@@H]3O[C@@H]5CO[C@@H](C)O[C@H]5[C@H](O)[C@H]3O)[C@H]3COC(=O)[C@H]23)OCO4)cc(OC)c1O [etoposide, reference compound] | 20.5 ± 1.82 | 5.82 ± 0.49 | 1.15 ± 0.09 |  |  |  |  | 
cleomiscosin A [Compound 11] |  |  |  |  | 21 ± 1.85 | 35.3 ± 2.61 | 43.7 ± 3.97 | > 100
